BigSolDB 2.1

c1ccc(-n2c3ccccc3c3ccccc32)cc1
solubility (mole fraction)
Settings	283.15 K	288.15 K	293.15 K	298.15 K	303.15 K	308.15 K	313.15 K	318.15 K	323.15 K
in dimethyl carbonate	0.054	0.0631	0.0771	0.0967	0.113	0.145	0.175	0.232	0.294
in ethyl acetate	0.0902	0.109	0.125	0.14	0.162	0.197	0.238	0.286	0.337
in ethyl lactate	0.0336	0.0362	0.0422	0.0502	0.0617	0.0731	0.0916	0.111	0.139
in isobutanol	0.00379	0.00416	0.00494	0.00582	0.00684	0.00814	0.00922	0.0109	0.0133
in isobutyl acetate	0.114	0.132	0.151	0.177	0.197	0.235	0.271	0.32	0.38
in isopentanol	0.00614	0.00721	0.00852	0.0101	0.0125	0.0154	0.0201	0.0253	0.0339
in isopropyl acetate	0.0729	0.0842	0.0983	0.111	0.133	0.163	0.198	0.238	0.291
in methyl acetate	0.0727	0.0874	0.103	0.128	0.161	0.199	0.237	0.277	0.354
in n-butyl acetate	0.113	0.129	0.146	0.167	0.186	0.225	0.26	0.306	0.355
in n-pentanol	0.0091	0.0106	0.0122	0.0147	0.0173	0.0212	0.0252	0.0309	0.0417
in n-propyl acetate	0.0761	0.0873	0.101	0.119	0.139	0.16	0.194	0.231	0.278
in sec-butanol	0.00405	0.00482	0.00607	0.00774	0.00939	0.0119	0.0148	0.0202	0.0278
